Assay results reported in publication PMC10804372, “Degradation by Design: New Cyclin K Degraders from Old CDK Inhibitors” (ACS Chemical Biology, 2024).

How the values were obtained:
Cyclin K [1] = test: Cyclin K levels by Western blot after single-concentration treatment; type: cell-based, human; conditions: HEK293T cells, 1 μM for 2 h, quantified from Western blots, mean ± SD, three independent experiments
In short: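 Cyclin K quantified by Western blot of HEK293T lysates after a single compound concentration, with ImageJ densitometry normalized to GAPDH. Cells grown in DMEM/10% FBS at 37 °C, 5% CO2.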

HEK293T cells = test: Proteome-wide quantitation by mass spectrometry (TMT); type: cell-based, human; conditions: for log2FC compound 41: 1uM, 2h
CDK12 = target: T1, CDK12 (Homo sapiens, UniProt Q9NYV4); test: KINOMEscan binding assay (Eurofins DiscoverX); conditions: KINOMEscan
T1 construct: purchased Eurofins DiscoverX (KINOMEscan service)
T1 sequence (Q9NYV4 whole entry): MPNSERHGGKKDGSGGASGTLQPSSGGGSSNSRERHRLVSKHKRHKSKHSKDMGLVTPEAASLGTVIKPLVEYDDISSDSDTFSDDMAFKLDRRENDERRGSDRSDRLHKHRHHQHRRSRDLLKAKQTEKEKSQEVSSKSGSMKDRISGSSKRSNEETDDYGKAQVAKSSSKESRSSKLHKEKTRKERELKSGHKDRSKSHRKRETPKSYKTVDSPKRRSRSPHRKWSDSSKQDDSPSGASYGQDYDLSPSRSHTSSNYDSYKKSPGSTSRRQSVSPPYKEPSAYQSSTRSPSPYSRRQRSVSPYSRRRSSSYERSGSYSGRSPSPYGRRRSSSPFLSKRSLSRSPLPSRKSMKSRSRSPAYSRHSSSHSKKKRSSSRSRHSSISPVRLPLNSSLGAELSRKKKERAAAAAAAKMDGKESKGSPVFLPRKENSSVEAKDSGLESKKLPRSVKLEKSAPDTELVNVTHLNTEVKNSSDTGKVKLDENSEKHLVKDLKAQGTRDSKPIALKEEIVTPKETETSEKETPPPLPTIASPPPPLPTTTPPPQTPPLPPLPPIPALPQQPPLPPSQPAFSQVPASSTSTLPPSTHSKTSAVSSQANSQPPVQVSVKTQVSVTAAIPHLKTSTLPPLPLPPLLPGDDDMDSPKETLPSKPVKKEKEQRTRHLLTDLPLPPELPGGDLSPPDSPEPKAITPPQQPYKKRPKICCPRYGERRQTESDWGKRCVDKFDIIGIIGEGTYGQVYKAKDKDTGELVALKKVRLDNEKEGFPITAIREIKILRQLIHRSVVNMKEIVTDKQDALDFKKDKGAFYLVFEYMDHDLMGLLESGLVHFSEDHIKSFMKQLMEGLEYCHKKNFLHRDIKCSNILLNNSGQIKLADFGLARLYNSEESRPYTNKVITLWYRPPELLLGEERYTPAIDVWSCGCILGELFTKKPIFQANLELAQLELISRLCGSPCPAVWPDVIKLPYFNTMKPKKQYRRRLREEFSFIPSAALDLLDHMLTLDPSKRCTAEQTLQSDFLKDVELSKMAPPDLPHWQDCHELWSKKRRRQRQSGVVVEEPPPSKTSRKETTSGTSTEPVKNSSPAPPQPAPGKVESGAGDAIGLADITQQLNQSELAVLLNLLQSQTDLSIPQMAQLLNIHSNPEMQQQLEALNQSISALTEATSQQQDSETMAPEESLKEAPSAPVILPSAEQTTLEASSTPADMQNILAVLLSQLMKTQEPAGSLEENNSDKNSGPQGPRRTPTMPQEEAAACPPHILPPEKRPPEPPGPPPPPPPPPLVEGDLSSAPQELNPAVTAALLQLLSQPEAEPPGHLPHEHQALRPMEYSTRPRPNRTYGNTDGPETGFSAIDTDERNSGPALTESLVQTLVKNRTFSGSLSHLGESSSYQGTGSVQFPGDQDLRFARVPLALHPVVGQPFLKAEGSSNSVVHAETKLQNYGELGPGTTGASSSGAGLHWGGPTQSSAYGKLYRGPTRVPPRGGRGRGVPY

Cyclin K [2] = test: Cyclin K degradation concentration-response (DC50, DMax) by Western blot; type: cell-based, human; conditions: HEK293T, Western blot quantification, 3 biological repeats
In short: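 HEK293T cells treated across a concentration range; lysates immunoblotted for Cyclin K with GAPDH as loading control, ECL detection. Band intensities quantified, Cyclin K normalized to GAPDH, and DC50 derived by 4-parameter nonlinear regression of concentration–response curves.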

SMILES: O=C(NCc1ccc(C2=CCOCC2)cc1)c1n[nH]cc1NC(=O)c1c(Cl)cccc1Cl [compound 41]
- Remaining Cyclin K (%) (Cyclin K [1]): 3 ± 1%
- log2FC compound 41 (HEK293T cells): 1.1108
- number of proteins showing at least a −0.5 log2 fold change (HEK293T cells; HEK293T, 1 μM, 2 h treatment): 33 proteins
- log2FC compound 41 (HEK293T cells; protein AKR7A2 (Aflatoxin B1 aldehyde reductase member 2, O43488)): -0.7339
- log2FC compound 41 (HEK293T cells; protein ALG10 (Dol-P-Glc:Glc(2)Man(9)GlcNAc(2)-PP-Dol alpha-1,2-glucosyltransferase, Q5BKT4)): 0.9798
- log2FC compound 41 (HEK293T cells; protein ALKBH2 (DNA oxidative demethylase ALKBH2, Q6NS38)): 0.728
- log2FC compound 41 (HEK293T cells; protein ARF4 (ADP-ribosylation factor 4, P18085)): 0.7714
- log2FC compound 41 (HEK293T cells; protein ATP6AP1 (V-type proton ATPase subunit S1, Q15904)): 0.6251
- log2FC compound 41 (HEK293T cells; protein B3GLCT (Beta-1,3-glucosyltransferase, Q6Y288)): 0.6029
- log2FC compound 41 (HEK293T cells; protein BTF3L4 (Transcription factor BTF3 homolog 4, Q96K17)): 0.5924
- log2FC compound 41 (HEK293T cells; protein C1orf167 (Uncharacterized protein C1orf167, Q5SNV9)): 1.3705
- log2FC compound 41 (HEK293T cells; protein CCNK (Cyclin-K, O75909)): -1.4213
- log2FC compound 41 (HEK293T cells; protein CD9 (CD9 antigen, P21926)): 0.6995
- log2FC compound 41 (HEK293T cells; protein CD59 (CD59 glycoprotein, P13987)): 1.3635
- log2FC compound 41 (HEK293T cells; protein CD63 (CD63 antigen, P08962)): 1.3469
- log2FC compound 41 (HEK293T cells; protein CD151 (CD151 antigen, P48509)): 0.7942
- log2FC compound 41 (HEK293T cells; protein CDKL5 (Cyclin-dependent kinase-like 5, O76039)): 1.2994
- log2FC compound 41 (HEK293T cells; protein CENPW (Centromere protein W, Q5EE01)): 0.6212
- log2FC compound 41 (HEK293T cells; protein CERS1 (Ceramide synthase 1, P27544)): 0.5956
- log2FC compound 41 (HEK293T cells; protein CHCHD1 (Coiled-coil-helix-coiled-coil-helix domain-containing protein 1, Q96BP2)): -0.843
- log2FC compound 41 (HEK293T cells; protein CHCHD2 (Coiled-coil-helix-coiled-coil-helix domain-containing protein 2, Q9Y6H1)): -0.961
- log2FC compound 41 (HEK293T cells; protein CNOT8 (CCR4-NOT transcription complex subunit 8, Q9UFF9)): 0.5912
- log2FC compound 41 (HEK293T cells; protein COA7 (Cytochrome c oxidase assembly factor 7, Q96BR5)): -0.7413
- log2FC compound 41 (HEK293T cells; protein COPRS (Coordinator of PRMT5 and differentiation stimulator, Q9NQ92)): 0.7957
- log2FC compound 41 (HEK293T cells; protein COX6B1 (Cytochrome c oxidase subunit 6B1, P14854)): 0.7689
- log2FC compound 41 (HEK293T cells; protein COX7A2 (Cytochrome c oxidase subunit 7A2, mitochondrial, P14406)): -1.7055
- log2FC compound 41 (HEK293T cells; protein CSNK2B (Casein kinase II subunit beta, P67870)): 0.62
- log2FC compound 41 (HEK293T cells; protein CTSV (Cathepsin L2, O60911)): 0.7835
- log2FC compound 41 (HEK293T cells; protein DCDC1 (Doublecortin domain-containing protein 1, M0R2J8)): 1.8264
- log2FC compound 41 (HEK293T cells; protein DHX58 (Probable ATP-dependent RNA helicase DHX58, Q96C10)): 1.0451
- log2FC compound 41 (HEK293T cells; protein DNAJC5 (DnaJ homolog subfamily C member 5, Q9H3Z4)): 0.994
- log2FC compound 41 (HEK293T cells; protein DNPEP (Aspartyl aminopeptidase, Q9ULA0)): 0.6304
- log2FC compound 41 (HEK293T cells; protein DYNLL1 (Dynein light chain 1, cytoplasmic, P63167)): -0.6985
- log2FC compound 41 (HEK293T cells; protein ECI1 (Enoyl-CoA delta isomerase 1, mitochondrial, P42126)): 0.8277
- log2FC compound 41 (HEK293T cells; protein EI24 (Etoposide-induced protein 2.4 homolog, O14681)): 0.8122
- log2FC compound 41 (HEK293T cells; protein EIF5A2 (Eukaryotic translation initiation factor 5A-2, Q9GZV4)): 1.4183
- log2FC compound 41 (HEK293T cells; protein ELP5 (Elongator complex protein 5, Q8TE02)): 0.6971
- log2FC compound 41 (HEK293T cells; protein ERGIC3 (Endoplasmic reticulum-Golgi intermediate compartment protein 3, Q9Y282)): -0.6608
- log2FC compound 41 (HEK293T cells; protein FAM219A (Protein FAM219A, Q8IW50)): 0.6921
- log2FC compound 41 (HEK293T cells; protein FAM234A (Protein FAM234A, Q9H0X4)): 0.9598
- log2FC compound 41 (HEK293T cells; protein GGH (Gamma-glutamyl hydrolase, Q92820)): 0.639
- log2FC compound 41 (HEK293T cells; protein GNA15 (Guanine nucleotide-binding protein subunit alpha-15, P30679)): 1.1022
- log2FC compound 41 (HEK293T cells; protein GYG2 (Glycogenin-2, O15488)): 0.8256
- log2FC compound 41 (HEK293T cells; protein H2AC6 (Histone H2A type 1-C, Q93077)): -2.3143
- log2FC compound 41 (HEK293T cells; protein H2AC14 (Histone H2A type 1-J, Q99878)): -2.3989
- log2FC compound 41 (HEK293T cells; protein HMGN2 (Non-histone chromosomal protein HMG-17, P05204)): -0.8432
- log2FC compound 41 (HEK293T cells; protein HNRNPA2B1 (Heterogeneous nuclear ribonucleoproteins A2/B1, P22626)): -0.5885
- log2FC compound 41 (HEK293T cells; protein HSPB11 (Intraflagellar transport protein 25 homolog, Q9Y547)): 0.7236
- log2FC compound 41 (HEK293T cells; protein KCTD1 (BTB/POZ domain-containing protein KCTD1, Q719H9)): 0.9367
- log2FC compound 41 (HEK293T cells; protein KIAA0930 (Uncharacterized protein KIAA0930, Q6ICG6)): 0.6862
- log2FC compound 41 (HEK293T cells; protein KIAA1549 (UPF0606 protein KIAA1549, Q9HCM3)): 0.7226
- log2FC compound 41 (HEK293T cells; protein LIPA (Lysosomal acid lipase/cholesteryl ester hydrolase, P38571)): 0.766
- log2FC compound 41 (HEK293T cells; protein LIPT2 (Putative lipoyltransferase 2, mitochondrial, A6NK58)): -0.7183
- log2FC compound 41 (HEK293T cells; protein LPCAT3 (Lysophospholipid acyltransferase 5, Q6P1A2)): 1.5824
- log2FC compound 41 (HEK293T cells; protein LPIN2 (Phosphatidate phosphatase LPIN2, Q92539)): 0.7762
- log2FC compound 41 (HEK293T cells; protein LSM1 (U6 snRNA-associated Sm-like protein LSm1, O15116)): 1.1318
- log2FC compound 41 (HEK293T cells; protein MEIS1 (Homeobox protein Meis1, O00470)): -0.7006
- log2FC compound 41 (HEK293T cells; protein MGARP (Protein MGARP, Q8TDB4)): 0.8294
- log2FC compound 41 (HEK293T cells; protein MKRN1 (E3 ubiquitin-protein ligase makorin-1, Q9UHC7)): 0.6085
- log2FC compound 41 (HEK293T cells; protein MRPL24 (39S ribosomal protein L24, mitochondrial, Q96A35)): -0.8105
- log2FC compound 41 (HEK293T cells; protein MSMO1 (Methylsterol monooxygenase 1, Q15800)): 0.6949
- log2FC compound 41 (HEK293T cells; protein MT-ND4 (NADH-ubiquinone oxidoreductase chain 4, P03905)): 0.7038
- log2FC compound 41 (HEK293T cells; protein NCBP2AS2 (Protein NCBP2AS2, Q69YL0)): -0.5975
- log2FC compound 41 (HEK293T cells; protein NIPA2 (Magnesium transporter NIPA2, Q8N8Q9)): 0.8891
- log2FC compound 41 (HEK293T cells; protein NSMCE4A (Non-structural maintenance of chromosomes element 4 homolog A, Q9NXX6)): 0.6459
- log2FC compound 41 (HEK293T cells; protein NXT2 (NTF2-related export protein 2, Q9NPJ8)): 1.4453
- log2FC compound 41 (HEK293T cells; protein ORC4 (Origin recognition complex subunit 4, O43929)): 0.6334
- log2FC compound 41 (HEK293T cells; protein OSTC (Oligosaccharyltransferase complex subunit OSTC, Q9NRP0)): 0.6129
- log2FC compound 41 (HEK293T cells; protein POP5 (Ribonuclease P/MRP protein subunit POP5, Q969H6)): 0.6256
- log2FC compound 41 (HEK293T cells; protein PPP1CB (Serine/threonine-protein phosphatase PP1-beta catalytic subunit, P62140)): -0.8644
- log2FC compound 41 (HEK293T cells; protein PRPF38A (Pre-mRNA-splicing factor 38A, Q8NAV1)): 0.6341
- log2FC compound 41 (HEK293T cells; protein RBX1 (E3 ubiquitin-protein ligase RBX1, P62877)): 0.6251
- log2FC compound 41 (HEK293T cells; protein RER1 (Protein RER1, O15258)): 0.5922
- log2FC compound 41 (HEK293T cells; protein RPS29 (40S ribosomal protein S29, P62273)): -1.1057
- log2FC compound 41 (HEK293T cells; protein SDHAF4 (Succinate dehydrogenase assembly factor 4, mitochondrial, Q5VUM1)): 0.8419
- log2FC compound 41 (HEK293T cells; protein SEC11C (Signal peptidase complex catalytic subunit SEC11C, Q9BY50)): -0.5851
- log2FC compound 41 (HEK293T cells; protein SERINC3 (Serine incorporator 3, Q13530)): 0.6778
- log2FC compound 41 (HEK293T cells; protein SIAE (Sialate O-acetylesterase, Q9HAT2)): 0.753
- log2FC compound 41 (HEK293T cells; protein SLC25A17 (Peroxisomal membrane protein PMP34, O43808)): 1.1015
- log2FC compound 41 (HEK293T cells; protein SLC44A2 (Choline transporter-like protein 2, Q8IWA5)): 1.0845
- log2FC compound 41 (HEK293T cells; protein SPCS1 (Signal peptidase complex subunit 1, Q9Y6A9)): 0.6654
- log2FC compound 41 (HEK293T cells; protein STEAP2 (Metalloreductase STEAP2, Q8NFT2)): 0.6125
- log2FC compound 41 (HEK293T cells; protein SURF4 (Surfeit locus protein 4, O15260)): 0.8751
- log2FC compound 41 (HEK293T cells; protein TECR (Very-long-chain enoyl-CoA reductase, Q9NZ01)): 0.5914
- log2FC compound 41 (HEK293T cells; protein TMCC3 (Transmembrane and coiled-coil domain protein 3, Q9ULS5)): 0.6529
- log2FC compound 41 (HEK293T cells; protein TMED5 (Transmembrane emp24 domain-containing protein 5, Q9Y3A6)): 0.6722
- log2FC compound 41 (HEK293T cells; protein TMEM41A (Transmembrane protein 41A, Q96HV5)): 0.881
- log2FC compound 41 (HEK293T cells; protein TMSB4X (Thymosin beta-4, P62328)): -1.1542
- log2FC compound 41 (HEK293T cells; protein TVP23C (Golgi apparatus membrane protein TVP23 homolog C, Q96ET8)): 0.698
- log2FC compound 41 (HEK293T cells; protein UBE2R2 (Ubiquitin-conjugating enzyme E2 R2, Q712K3)): -0.7129
- log2FC compound 41 (HEK293T cells; protein WHAMM (WASP homolog-associated protein with actin, membranes and microtubules, Q8TF30)): -0.8329
- log2FC compound 41 (HEK293T cells; protein XPOT (Exportin-T, O43592)): 0.6641
- log2FC compound 41 (HEK293T cells; protein ZBTB17 (Zinc finger and BTB domain-containing protein 17, Q13105)): 1.0947
- Kd (CDK12): 3800 nM
- DMax (%) (Cyclin K [2]): >95%
- DC50 (Cyclin K [2]; read-out: CycK DC50): 141 nM
